{"source": "patent US11801257B2", "about": "“Stimulation of an immune response by enantiomers of cationic lipids” (PDS Biotechnology Corporation, priority 2008, dated 2023)", "key": {"DC2.4 dendritic cells": {"test_system": "DC2.4 dendritic cells", "settings": "cited from earlier work; for ability to stimulate the expression of CD 80 on DC 2.4 cells (relative potency): comparison by head group and acyl chain; for expression of CD80/CD86: liposomes, DC2.4 cells"}, "TC-1 HPV-positive tumors": {"test_system": "TC-1 HPV-positive tumors", "experiment": "TC-1 HPV-positive tumor growth in mice treated with cationic lipid/E7 compositions", "assay_type": "in vivo", "settings": "for ability to eradicate HPV-E7 positive tumors in tumor-bearing mice (tumor regression): lipid/E7 formulations, multiple lipid doses, summary statements", "description": "TC-1 cells are C57BL/6 mouse lung […] cells that have been transformed with the HPV16 E6 and E7 oncogenes and activated H-ras. Cells were grown in RPMI medium (commercially available from Invitrogen of Carlsbad, CA) supplemented with 10% fetal bovine serum and 100 U/ml penicillin, and […] streptomycin. The MHC class I restricted peptide from the HPV 16 E7 protein (amino acid 11 to 20, YMLDLQPETT [SEQ. ID. NO. 1]) was synthesized by the University of Pittsburgh Peptide Synthesis Facility by solid state synthesis using an Advanced ChemTech model 200 peptide synthesizer and purified by HPLC.\nIn FIG. 12, mice were subcutaneously injected with TC-1 cells on day 0 in order to induce the growth of HPV-positive tumors. The DOTAP/E7 compositions were comprised of racemic mixtures of DOTAP. The mice received DOTAP/E7 compositions containing 10 μg E7 peptide subcutaneously on the opposite side of the abdomen on day 6.\nIn FIGS. 13 and 14, mice were subcutaneously injected with TC-1 cells on day 0 in order to induce the growth of HPV-positive tumors. The mice received R and S-DOTAP/E7 compositions containing 20 μg E7 peptide subcutaneously on the opposite side of the abdomen on day 6. R or S-DOTAP lipid concentrations in the complex varied from 3 to 600 nmole (3, 15, 30, 75, 100, 125, 150, 300, and 600 nmole)."}, "human T lymphocytes": {"test_system": "human T lymphocytes", "settings": "cited from earlier work"}, "[1]": {"test_system": "Human HLA-A2 dendritic cells", "experiment": "Chemokine and cytokine production by human dendritic cells (Searchlight Protein Array Multiplex ELISA)", "assay_type": "cell-based", "settings": "40 micromolar complex", "description": "Human HLA-A2 dendritic cells (Lonza, Walkersville, MD), were treated and grown in culture as described above. On day 3 the cells were treated with 40 micromolar DOTAP/E7 complex or the potent immunostimulator lipopolysaccharide (LPS) at 50 micromolar concentrations (positive control). Medium from assay wells was removed and centrifuged at 1300 rpm in a microfuge for 5 minutes to pellet unattached dendritic cells. The supernatants were removed and treated with 10 microliters per ml of Calbiochem (La Jolla, CA) protease inhibitor cocktail set I (Cat. No. 539131) and stored frozen prior to analysis. Samples were analyzed for chemokine and cytokine expression by Searchlight Protein Array Multiplex ELISA assay [Pierce Biotechnology (Woburn, MA)]."}, "purified human T-cells": {"test_system": "purified human T-cells", "experiment": "Induction of human T-cell proliferation by R and S enantiomers of DOTAP", "assay_type": "cell-based", "text": "In the present studies, the induction of human T-cell proliferation by the R and S enantiomers of DOTAP was investigated and confirmed using purified T-cells obtained from Lonza, MA."}, "[2]": {"settings": "lipid 600 nmole with 20 μg E7 peptide, s.c. day 6 (S-DOTAP P<0.05)"}}}
{"compound": "CCCCCCCCCCCCCC(=O)OCC(COP(=O)(OCC)OCC[N+](C)(C)C)OC(=O)CCCCCCCCCCCCC", "note": "(stereo not drawn) [DMEPC-14:0, 1,2-dimyristoyl-sn-glycero-3-ethylphosphocholine]", "values": [{"measurement": "ability to stimulate the expression of CD 80 on DC 2.4 cells (relative potency)", "setting": "DC2.4 dendritic cells", "result": "more potent"}]}
{"compound": "CCCCCCCCCCCCCCOC(=O)CC[C@H](NC(=O)[C@@H](N)CCCCN)C(=O)OCCCCCCCCCCCCCC", "note": "[DMKD, O,O′-dimyristyl-N-lysyl-glutamate]", "values": [{"measurement": "expression of CD80/CD86", "setting": "DC2.4 dendritic cells", "result": "strongly stimulated"}]}
{"compound": "CCCCCCCCCCCCCCOC(=O)C[C@H](NC(=O)[C@@H](N)CCCCN)C(=O)OCCCCCCCCCCCCCC", "note": "[DMKE, O,O′-dimyristyl-N-lysyl aspartate]", "values": [{"measurement": "expression of CD80/CD86", "setting": "DC2.4 dendritic cells", "result": "strongly stimulated"}]}
{"compound": "CCCCCCCC/C=C\\CCCCCCCC(=O)OC[C@@H](COP(=O)(OCC)OCC[N+](C)(C)C)OC(=O)CCCCCCC/C=C\\CCCCCCCC", "note": "(stereo partly drawn) [DOEPC-18:1, 1,2-dioleoyl-sn-glycero-3-ethylphosphocholine]", "values": [{"measurement": "ability to stimulate the expression of CD 80 on DC 2.4 cells (relative potency)", "setting": "DC2.4 dendritic cells", "result": "more potent"}]}
{"compound": "CCCCCCCC/C=C\\CCCCCCCC(=O)OC[C@H](COP(=O)(O)OCC(O)CO)OC(=O)CCCCCCC/C=C\\CCCCCCCC", "note": "(stereo partly drawn) [DOPG, 1,2-dioleoyl-sn-glycero-3-phosphoglycerol]", "values": [{"measurement": "inhibition of tumor growth", "setting": "TC-1 HPV-positive tumors; anionic lipid liposomes 150 nmole with antigen", "result": "failed to significantly inhibit tumor growth"}]}
{"compound": "CCCCCCCC/C=C\\CCCCCCCC(=O)OC[C@@H](C[N+](C)(C)C)OC(=O)CCCCCCC/C=C\\CCCCCCCC", "note": "[DOTAP, 1,2-dioleoyl-3-trimethylammoninum propane]", "values": [{"measurement": "inhibition of tumor growth", "setting": "TC-1 HPV-positive tumors; liposomes 100 nmole, without E7 peptide", "result": "did not show significant inhibition of tumor growth"}, {"measurement": "tumor growth versus untreated control on day 23", "setting": "TC-1 HPV-positive tumors; racemic DOTAP 15 nmole with 10 μg E7 peptide, s.c. day 6, P<0.05", "result": "partial tumor inhibition effect"}, {"measurement": "tumor growth versus untreated control on day 23", "setting": "TC-1 HPV-positive tumors; racemic DOTAP 30 nmole with 10 μg E7 peptide, s.c. day 6, P<0.01", "result": "enhanced efficacy"}, {"measurement": "tumor growth versus untreated control on day 23", "setting": "TC-1 HPV-positive tumors; racemic DOTAP 75 nmole with 10 μg E7 peptide, s.c. day 6, P<0.001", "result": "most significant tumor regression effect"}, {"measurement": "tumor growth versus untreated control on day 23", "setting": "TC-1 HPV-positive tumors; racemic DOTAP 150 nmole with 10 μg E7 peptide, s.c. day 6, P<0.01", "result": "enhanced efficacy"}, {"measurement": "tumor growth versus untreated control on day 23", "setting": "TC-1 HPV-positive tumors; racemic DOTAP 300 nmole with 10 μg E7 peptide, s.c. day 6, P<0.01", "result": "enhanced efficacy"}, {"measurement": "tumor growth versus untreated control on day 23", "setting": "TC-1 HPV-positive tumors; racemic DOTAP 600 nmole with 10 μg E7 peptide, s.c. day 6", "result": "did not show anti-tumor activity"}, {"measurement": "expansion of T cell colonies in culture", "setting": "human T lymphocytes; HLA-A2+ donor lymphocytes, three stimulations at 7-day interval, three days after third, versus medium control", "result": "extensive expansion of T cell colonies"}, {"measurement": "ERK phosphorylation in T cells", "setting": "human T lymphocytes", "result": "confirmed by ERK phosphorylation"}, {"measurement": "expression of costimulatory molecule CD86 on human T lymphocytes", "setting": "human T lymphocytes", "result": "induced expression of the costimulatory molecule, CD86"}]}
{"compound": "CCCCCCCCCCCC(=O)OC[C@H](COP(=O)(OCC)OCC[N+](C)(C)C)OC(=O)CCCCCCCCCCC", "note": "(stereo partly drawn) [DXEPC-12:0, 1,2-dilauroyl-sn-glycero-3-ethylphosphocholine]", "values": [{"measurement": "ability to stimulate the expression of CD 80 on DC 2.4 cells (relative potency)", "setting": "DC2.4 dendritic cells", "result": "more potent"}]}
{"compound": "CCCCCCCC/C=C\\CCCCCCCC(=O)OC[C@@H](C[N+](C)(C)C)OC(=O)CCCCCCC/C=C\\CCCCCCCC", "note": "[R-DOTAP, 1,2-dioleoyl-3-trimethylammoninum propane]", "values": [{"measurement": "tumor growth versus untreated control on day 23", "setting": "TC-1 HPV-positive tumors; lipid 300 nmole with 20 μg E7 peptide, s.c. day 6, P<0.0001", "result": "most significant tumor regression efficacy"}, {"measurement": "tumor growth versus untreated control on day 23", "setting": "TC-1 HPV-positive tumors; [2]", "result": "did not show significant anti-tumor activity"}, {"measurement": "tumor growth versus untreated control on day 23", "setting": "TC-1 HPV-positive tumors; lipid 75-150 nmole with 20 μg E7 peptide, s.c. day 6, P<0.001", "result": "partial tumor inhibition effect"}, {"measurement": "ability to eradicate HPV-E7 positive tumors in tumor-bearing mice (tumor regression)", "setting": "TC-1 HPV-positive tumors", "result": "results in tumor regression"}, {"measurement": "potency in inducing chemokine and cytokine production relative to DOTAP racemic mixture", "setting": "[1]", "result": "equivalent to or higher than"}, {"measurement": "potency in inducing chemokine and cytokine production, R versus S enantiomer", "setting": "[1]", "result": "more potent immune activator than S-DOTAP"}, {"measurement": "potency in inducing chemokine and cytokine production, R versus S enantiomer", "setting": "[1]; listed as R-enantiomer", "result": "higher potency"}, {"measurement": "induction of human T-cell proliferation", "setting": "purified human T-cells", "result": "induced more T-cell proliferation than S-DOTAP"}]}
{"compound": "CCCCCCCC/C=C\\CCCCCCCC(=O)OC[C@@H](C[N+](C)(C)C)OC(=O)CCCCCCC/C=C\\CCCCCCCC", "note": "[S-DOTAP, 1,2-dioleoyl-3-trimethylammoninum propane]", "values": [{"measurement": "tumor growth versus untreated control on day 23", "setting": "TC-1 HPV-positive tumors; [2]", "result": "induced the slowest tumor growth"}, {"measurement": "tumor growth / tumor regression over the lipid dose series", "setting": "TC-1 HPV-positive tumors; lipid 3 to 600 nmole with 20 μg E7 peptide, s.c. day 6", "result": "did not exhibit the ability to inhibit tumor growth and no tumor regression was observed"}, {"measurement": "ability to eradicate HPV-E7 positive tumors in tumor-bearing mice (tumor regression)", "setting": "TC-1 HPV-positive tumors", "result": "only limited tumor regression"}, {"measurement": "dose range that effectively attenuates tumor growth", "setting": "TC-1 HPV-positive tumors; rodent species, listed as S-enantiomer of DOTAP", "result": "effective over this same range of doses"}, {"measurement": "induction of human T-cell proliferation", "setting": "purified human T-cells", "result": "confirmed"}]}
{"compound": "YMLDLQPETT (Human papillovirus subtype 16 E7 oncogene tumor-associated antigen MHC class I restricted peptide) [E7 peptide, ID; NO]", "values": [{"measurement": "inhibition of tumor growth", "setting": "TC-1 HPV-positive tumors; peptide alone, no lipid (not shown)", "result": "did not show any inhibition of tumor growth"}]}
